Assay results taken from paper PMC8122671, “New Succinimides with Potent Anticancer Activity: Synthesis, Activation of Stress Signaling Pathways and Characterization of Apoptosis in Leukemia and Cervical Cancer Cells” (International Journal of Molecular Sciences, 2021).
Read-outs that look alike come from different tables or passages of the source.

Tests used:
[1] = system: HUVEC (normal endothelial) cells; assay: MTT cytotoxicity assay, HUVEC; assay type: cell-based; settings: Homo sapiens, read-out: IC50 HUVEC
Method: (§1) The cytotoxicity of new derivatives of dicarboximides was tested in HeLa (cervix carcinoma cell line), K562 (myelogenous leukemia cell line), MOLT-4 (Human T-Lymphoid Cell Line), and HUVEC (normal endothelial) cells. First, the viability of cells was determined after 48 h incubation with the screened compounds used at the concentration of 100 μM (data not shown). […] Cells exposed to 1% DMSO (as vehicle) served as the control with 100% survival.
(§2) Human umbilical vein endothelial cells (Life Technologies, Carlsbad, CA, USA) were cultured (according to the manufacturer’s instructions) in Medium 200 containing low serum growth supplement; 1 × 10^4 cells were seeded on each well on a 96-well plate (Nunc, Roskilde, Denmark). The HeLa (human cervix carcinoma), K562, and MOLT-4 (leukemia) cells were cultured in RPMI 1640 medium supplemented with antibiotics and 10% fetal calf serum in a 5% CO2–95% air atmosphere; 7 × 10^3 cells were seeded on each well on a 96-well plate (Nunc). Twenty-four hours later, cells were exposed to the test compounds for additional 48 hours. Stock solutions of test compounds were freshly prepared in DMSO. The final concentrations of the compounds tested in the cell cultures were 2 × 10^−1, 1 × 10^−1, 5 × 10^−2, 1 × 10^−2, 1 × 10^−3, and 1 × 10^−4 mM. The concentration of DMSO in the cell culture medium was 1%. The values of IC50 (the concentration of test compound required to reduce the cell survival fraction to 50% of the control) were calculated from dose–response curves and used as a measure of cellular sensitivity to a given treatment. The cytotoxicity of all compounds was determined by the MTT [3-(4,5-dimethylthiazol-2-yl)-2,5-diphenyltetrazolium bromide; Sigma, St. Louis, MO, USA] assay. Briefly, after 24 or 48 h of incubation with drugs, the cells were treated with the MTT reagent, and incubation was continued for 2 h. MTT-formazan crystals were dissolved in 20% SDS and 50% DMF at pH 4.7, and absorbance was read at 570 and 650 nm on a microplate reader FLUOstar Omega (BMG Labtech, Offenburg, Germany). As a control (100% viability), we used cells grown in the presence of the vehicle (1% DMSO) only.

[2] = system: HeLa (human cervix carcinoma) cells; assay: MTT cytotoxicity assay, HeLa; assay type: cell-based; settings: read-out: IC50 HeLa
Method: as §1, §2

[3] = system: K562 (myelogenous leukemia cell line); assay: MTT cytotoxicity assay, K562; assay type: cell-based, human; settings: Homo sapiens, K562, 48 h, read-out: IC50 K562
Method: as §1, §2

[4] = Lipophilicity (logkw) by reversed-phase chromatography (RP-HPLC); assay type: physicochemical; settings: for logkw (Experimental): extrapolated to pure water; for logkw (Table S2): intercept of logk vs methanol fraction, n = 4
From the text: The main goal of the synthetic part was the synthesis of new derivatives of dicarboximides with decreased lipophilicity in comparison to the lead compounds, i.e., Ia–Ie and II. To reduce the lipophilicity of the new dicarboximides, a hydroxyalkyl chain connected with an aliphatic amine was introduced to the imides (Scheme 1). At the same time, the imide scaffold in derivatives from group 2 and 3 was the same as in lead compounds Ia–Ie and II, respectively (Figure 1). The structure of the imide was changed in derivatives 1b–1g. The lipophilicity of new derivatives was calculated using the Osiris Property Explorer program. For some compounds, lipophilicity was determined experimentally by a reversed-phase chromatography (detailed description is given in Materials and Methods and in the Supplementary Data, Table S2). Table 1 summarizes the calculated (clogP) and experimental (logkw) parameters of the lipophilicity of new derivatives.
The reversed-phase high-performance liquid chromatography (RP-HPLC) analysis was performed on a Merck–Hitachi LaChrom Elite System (Merck, Darmstadt, Germany) with diode array detector L-2455, thermostat L-2300, pump L-2130, and autosampler L-2200 and with the Waters XTerra MS RP-18 (3.5 μm, 150 × 4.6 mm) chromatographic column (Waters, Milford, MA, USA) as the stationary phase. The mobile phase consisted of methanol, water, and 0.1% (v/v) formic acid and was degassed by the use of the built-in membrane degasser. The methanol gradient grade for HPLC was purchased from Merck (Merck, Darmstadt, Germany) and formic acid from Polish Reagents (Polish Reagents, Gliwice, Poland); double-distilled water was used. Then, 5 μL of methanolic solutions (0.1%; m/v) of selected samples were applied to the chromatographic column by the use of an autosampler Hitachi L-2200 (LaChrom Elite, Hitachi-Merck, Darmstadt, Germany). The analysis was performed with the flow rate of 0.7 mL min^−1 in isocratic mode using various concentrations of organic modifier (methanol) in binary polar mobile phases; percentages of methanol in water were 45–70% (%, v/v) and changed by 5% per step. Chromatograms were detected at 254 nm and the temperature of the column was 25 °C. All experiments were repeated in triplicate, and the final results were taken to be the arithmetic means. Dead time was measured by the use of uracil (Calbiochem. Merck, Darmstadt, Germany). Statistical and regression analyses were performed using Statistica (ver. 13.3 for Windows). The chromatographic lipophilicity parameters ( logkW ) for selected samples were obtained by the extrapolation of the retention parameter logk to pure water, according to Equation (1):(1) logk=logkw−S·ϕ; where logkW is the value of the retention factor of a substance in pure water, S is the slope of the regression curve, and ϕ is the concentration of the organic modifier. The values of logk were calculated based on the raw HPLC data using the formula (2):(2) logk=logtR−t0/t0; where tR is the retention time and t0 is the dead retention time (determined for uracil).
The chromatographic lipophilicity parameters (logkௐ ) for selected samples were ob‐ tained by the extrapolation of the retention parame te r logk to pure water, according to […]
where logkௐ is the value of the retention factor of a substance in pure water, S is the slope of the regression curve, and φ is the concentration of the organic modifier. The values of logk were ca lcula ted based on the raw HPLC data using the formula: […]
logk ൌ log ሺ௧ೃ ି ௧బ௧బ ሻ (2) where tோ is the retention time and t଴ is the dead retention time (determined for ura‐ cil). The goodness of fit of the equation (1) to the experimental data was classified accord‐ ing to Jaffe (Jaffe, H. H. A Reexamination of the Hammet Equation. Chem. Rev. 1953, 53, In our RP‐HPLC experiments, the goodness of fit of the equation to the experi‐ mental data are excellent in most ca ses (r > 0.99). The F statistic val ues are, in all cases, […]

[5] = system: MOLT-4 (Human T-Lymphoid Cell Line); assay: MTT cytotoxicity assay, MOLT-4; assay type: cell-based; settings: read-out: IC50 MOLT-4
Method: as §1, §2

[6] = 48 h incubation, average (SD) of three experiments
[7] = MOLT-4, 48 h incubation, average (SD) of three experiments

Compound	IC50 [1, 6] [µM]	IC50 [2, 6] [µM]	IC50 [3, 6] [µM]	logkw (Experimental) [4]	logkw (Table S2) [4]	IC50 [5, 7] [µM]	IC50 ([1]; 48 h) [µM]	IC50 ([2]; 48 h) [µM]	IC50 [3] [µM]	IC50 ([5]; MOLT-4, 48 h) [µM]
CCNCC(O)CN1C(=O)C2C(C1=O)C1(C)C(=O)C2(C)C(c2ccccc2)=C1c1ccccc1 (stereo not drawn) [1b, 4-[3-(ethylamino)-2-hydroxypropyl]-1,7-dimethyl-8,9-diphenyl-4-azatricyclo [5.2.1.0^2,6]dec-8-ene-3,5,10-trione]	20	30	32	4.78	4.7844	7				
CC(C)(C)NCC(O)CN1C(=O)C2C(C1=O)C1(C)C(=O)C2(C)C(c2ccccc2)=C1c1ccccc1 (stereo not drawn) [1c, 4-[3-(tert-butylamino)-2-hydroxypropyl]-1,7-dimethyl-8,9-diphenyl-4-azatricyclo [5.2.1.0^2,6]dec-8-ene-3,5,10-trione]	23	26	28	4.91	4.9077	28				
CCCCN(CCCC)CC(O)CN1C(=O)C2C(C1=O)C1(C)C(=O)C2(C)C(c2ccccc2)=C1c1ccccc1 (stereo not drawn) [1e, 4-[3-(dibutylamino)-2-hydroxypropyl]-1,7-dimethyl-8,9-diphenyl-4-azatricyclo [5.2.1.0^2,6]dec-8-ene-3,5,10-trione]	30	3.2	5.8			8				
CC12C(=O)C(C)(C(c3ccccc3)=C1c1ccccc1)C1C(=O)N(CC(O)CN3CCCCC3)C(=O)C12 (stereo not drawn) [1f, 4-[2-hydroxy-3-(piperidin-1-yl)propyl]-1,7-dimethyl-8,9-diphenyl-4-azatricyclo[5.2.1.0^2,6]dec-8-ene-3,5,10-trione]	21	55	18			40				
CC12C(=O)C(C)(C(c3ccccc3)=C1c1ccccc1)C1C(=O)N(CC(O)CN3CCOCC3)C(=O)C12 (stereo not drawn) [1g, 4-[-2-hydroxy-3-(morpholin-4-yl)propyl]-1,7-dimethyl-8,9-diphenyl-4-azatricyclo [5.2.1.0^2,6]dec-8-ene-3,5,10-trione]		> 100	> 100	4.83	4.8345	> 100				
CC12C(=O)C(C)(C(c3ccccc3)=C1c1ccccc1)C1C(=O)N(CCN3CCCCC3)C(=O)C12 (stereo not drawn) [1i, 4-[2-(piperidin-1-yl)ethy]-1,7-dimethyl-8,9-diphenyl-4-azatricyclo[5.2.1.0^2,6]dec-8-ene-3,5,10-trione]	23	52	30			15				
CC12C(=O)C(C)(C(c3ccccc3)=C1c1ccccc1)C1C(=O)N(CCN3CCOCC3)C(=O)C12 (stereo not drawn) [1j, 4-[2-(morpholin-4-yl)ethy]-1,7-dimethyl-8,9-diphenyl-4-azatricyclo[5.2.1.0^2,6]dec-8-ene-3,5,10-trione]		> 100	> 100			> 100				
CCCCN(CCCC)CC(O)CN1C(=O)C2C(C1=O)C1(CC)C(=O)C2(CC)C(c2ccccc2)=C1c1ccccc1 (stereo not drawn) [2e, 4-[3-(dibutylamino)-2-hydroxypropyl]-1,7-diethyl-8,9-diphenyl-4-azatricyclo[5.2.1.0^2,6]dec-8-ene-3,5,10-trione]	1.2	19	4.1			3.1				
CCNCC(O)CN1C(=O)C2C(C1=O)C1(c3ccccc3)CC2(c2ccccc2)C(c2ccccc2)=C1c1ccccc1 (stereo not drawn) [3b, 4-[3-(ethylamino)-2-hydroxypropyl]-1,7,8,9-tetraphenyl-4-azatricyclo[5.2.1.0^2,6]dec-8-ene-3,5-dione]		> 100	> 100	6.31	6.3071	> 100				
CCCCN(CCCC)CC(O)CN1C(=O)C2C(C1=O)C1(c3ccccc3)CC2(c2ccccc2)C(c2ccccc2)=C1c1ccccc1 (stereo not drawn) [3e, 4-[3-(dibutylamino)-2-hydroxypropyl]-1,7,8,9-tetraphenyl-4-azatricyclo[5.2.1.0^2,6]dec-8-ene-3,5-dione]	7	40	6			5.4				
CN(C)CCN1C(=O)C2C(C1=O)C1(c3ccccc3)CC2(c2ccccc2)C(c2ccccc2)=C1c1ccccc1 (stereo not drawn) [II]	4	20	16			18				
CCC12C(=O)C(CC)(C(c3ccccc3)=C1c1ccccc1)C1C(=O)N(CCN(C)C)C(=O)C12 (stereo not drawn) [Ia]				4.94	4.9430					
CCN(CC)CCN1C(=O)C2C(C1=O)C1(CC)C(=O)C2(CC)C(c2ccccc2)=C1c1ccccc1 (stereo not drawn) [Ib]				5.09	5.0889					
CCC12C(=O)C(CC)(C(c3ccccc3)=C1c1ccccc1)C1C(=O)N(CCN3CCCCC3)C(=O)C12 (stereo not drawn) [Ic]	15	18	20			15				
CCC12C(=O)C(CC)(C(c3ccccc3)=C1c1ccccc1)C1C(=O)N(CCCN(C)C)C(=O)C12 (stereo not drawn) [Id]				5.05	5.0532					
CCC12C(=O)C(CC)(C(c3ccccc3)=C1c1ccccc1)C1C(=O)N(CC(O)CNC(C)C)C(=O)C12 (stereo not drawn) [Ie]							3.5	10	8	15
